Reference: patent EP1927378A1, “Hair-treatment compositions comprising quercetin and use thereof to revitalize hair” (Henkel Kommanditgesellschaft auf Aktien, priority 2006, dated 2008)

What was measured:
Type in all cases: cell-based
[1] = test system: organotypischen Zellkulturen; test: ATP production (ATPLite-M luminescence assay) in organotypic cell cultures; details: 24 h
Description: ATP (Adenosintriphosphat) ist die universelle Speicherform für chemische Energie in Zellen. Bei der Abspaltung der distalen Phosphatgruppe entsteht ADP und Pi (anorganisches Phosphat). Diese Reaktion ist stark exergon, d.h. es wird Energie frei. Produziert wird ATP beim zellulären, oxidativen Abbau von Fetten, Kohlehydraten und Proteinen. Es dient als Energielieferant für biochemische Synthesen, für Transportvorgänge (aktiver Transport) und für mechanische Arbeit. Diese Vorgänge sind endergon, d.h. sie laufen nur unter Energiezufuhr ab. Um ihren Stoffwechsel optimal aufrecht zu erhalten, sind Zellen also auf eine ausreichende Versorgung mit ATP angewiesen. Auch dermale Papillenzellen benötigen beispielsweise zur Produktion von Wachstumsfaktoren und damit zur Steuerung des Haarzyklus ATP. Die Proliferation und Differenzierung von Haarschaftkeratinozyten ist ebenfalls an die ATP-Synthese gekoppelt, da für beide Vorgänge die Biosynthese spezifischer Proteine essentielle Voraussetzung ist. Kann durch ein Produkt die ATP-Syntheserate der haarrelevanten Zellen erhöht werden, so steht den Zellen mehr Energie zur Verfügung um Stoffwechselvorgänge und zelluläre Strukturen aufrecht zu erhalten, und um Strukturen zu erneuern, z.B. bei Reparaturprozessen oder dem Neuaufbau von Haaren.
Die ATP-Bestimmungen erfolgten mit Hilfe des ATPLiteTM-M Assays (Packard). […]

IGFBP3 = test: Differential gene expression by quantitative RT-PCR in dermal papilla cells: IGFBP3; details: for Expression IGFBP3, Mittelwert: 24 h, untreated control = 1, spread in brackets
Description: (§1) Hepatocyte Growth Factor (HGF) und Keratinocyte Growth Factor (KGF) sind wichtige Wachstumsfaktoren, die von den dermalen Papillenzellen synthetisiert werden. Im Speziellen stimuliert HGF das Follikelwachstum und KGF die Keratinozytenproliferation. Entsprechend werden HGF und KGF in der Wachstumsphase vermehrt exprimiert. Diesen Eigenschaften gegenüber steht die Expression von IGFBP-3. Dieses Genprodukt führen zu einer Verschiebung des Zyklus von der Wachstums- zur Regressionsphase. Nach Applikation von Substanzen, die Effekte am biologisch aktiven Teil des Haares hervorrufen, könnte die Bestimmung der Veränderungen der Expression dieser Gene Aussagen über Haarwuchsstimulantien oder -inhibitoren liefern. Die differentielle Genexpression wurde mittels quantitatitiver RT-PCR (Reverse-Transkription Polymerase Kettenreaktion) bestimmt. Nach Anzucht der dermalen Papillenzellen wurden diese für 24 h mit Dihydroquercetin in der Konzentration von 8,8 und 88 µM (entspricht Extrakt der Sibirischen Lerche von 0,003% und 0,0003%) inkubiert. Zur Durchführung der PCR wird zunächst mit Hilfe des RNeasy Mini Kits der Fa. Qiagen die RNA aus den dermalen Papillenzellen isoliert und mittels reverser Transkription in cDNA umgeschrieben. Bei der anschließenden PCR Reaktion, die mit Hilfe genspezifischer Primer für die jeweiligen haarrelevanten Gene durchgeführt wird und die der Amplifikation der gesuchten Genabschnitte dient, wird die Bildung der PCR-Produkte online über ein Fluoreszenzsignal detektiert. Das Fluoreszenzsignal ist dabei proportional zur Menge des gebildeten PCR-Produktes. Je stärker die Expression eines bestimmten Gens ist, desto größer ist die Menge an gebildetem PCR-Produkt und um so höher ist das Fluoreszenzsignal. Zur Quantifizierung der Genexpression wird die unbehandelte Kontrolle gleich 1 gesetzt und die Expression der zu bestimmenden Gene darauf bezogen (x-fache Expression). Dabei werden Werte, die größer/gleich der 2fachen Expression oder kleiner/gleich der 0.5fachen Expression der unbehandelten Kontrolle sind als signifikant differentiell exprimiert eingestuft. […]

HGF [2] = test: Differential gene expression by quantitative RT-PCR in dermal papilla cells: HGF; details: for Expression HGF, Mittelwert: 24 h, untreated control = 1, spread in brackets
Description: as §1

KGF [3] = test: Differential gene expression by quantitative RT-PCR in dermal papilla cells: KGF; details: for Expression KGF, Mittelwert: 24 h, untreated control = 1, spread in brackets
Description: as §1

KGF [4] = test: KGF release into medium (ELISA) from dermal papilla cells; details: for Relative Ausschüttung von KGF, Mittelwert [%]: 24 h, untreated sample = 100, spread in brackets
Description: Der Keratinozyten Wachstumsfaktor Factor (KGF) ist ein äußerst wichtiger Regulator des Haars. Bei einer potentiell wachstumsfördernden und das Haar stärkenden Aktivsubstanz kann von einer Steigerung der ins Medium ausgeschütteten Faktoren ausgegangen werden. Die Ausschüttung von KGF kann mit Hilfe von kommerziell erhältlichen ELISA-Kits quantifiziert werden. Dazu wurden die dermalen Papillenzellen über 24 Stunden mit Dihydroquercetin in der Konzentration von 8,8 und 88 µM (entspricht Extrakt der Sibirischen Lerche von 0,003% und 0,0003%) inkubiert und die Konzentration des Wachstumsfaktors im Medium in beschriebener Weise quantifiziert. Tabelle 3: Relative Ausschüttung von KGF in [%] nach Behandlung der dermalen Papillenzellen im Vergleich zur unbehandelten Probe.

KGF [5] = test: KGF release into medium (ELISA) from organotypic hair follicle cell cultures; details: 88 µM
Description: (§2) Hepatocyte Growth Factor (HGF) und Keratinocyte Growth Factor (KGF) sind wichtige Wachstumsfaktoren, die von der dermalen Papille ausgeschüttet werden, um die Proliferation der Haarschaftkeratinozyten, die für die Synthese der Haarkeratine verantwortlich sind, zu steuern. Sie sind außerdem charakteristische Marker für die Anagenphase, in der auch die Keratinsynthese maximal ist. Darüber hinaus ist zu beachten, dass bei der Haaralterung das Proliferationsvermögen der Haarfollikelzellen abnimmt. Die Ausschüttung von HGF sowie KGF kann mit Hilfe von kommerziell erhältlichen ELISA-Kits quantifiziert werden. Dazu werden organotypische Haarfollikelzellkulturen über 72h mit Dihydroquercetin in der Konzentration 88 µM (entspricht Extrakt der Sibirischen Lerche von 0,003%) inkubiert und die Konzentration der Wachstumsfaktoren im Medium in beschriebener Weise bestimmt. Tabelle 4: Relative Ausschüttung von HGF und KGF in [%] nach Behandlung von organotypischen Haarfollikelzellkulturen im Vergleich zu unbehandelten Kontrollen.

HGF [6] = test: HGF release into medium (ELISA) from organotypic hair follicle cell cultures; details: 88 µM
Description: as §2

[7] = test system: "Outer Root Sheath" Keratinozyten; test: Layer thickness of ORS keratinocytes in organotypic cell culture model (histology); details: 88 µM, 72 h
Description: Physiologische Effekte der Behandlung mit potentiellen Wirkstoffen hinsichtlich einer Verdickung des Haares kann anhand einer Steigerung der Schichtdicke der "Outer Root Sheath" Keratinozyten im organotypischen Zellkulturmodell bestimmt werden. Dazu werden jeweils drei Modelle nach 72 stündiger Inkubation mit Wirkstoff oder mit Referrenzmedium histologisch analysiert: Fixation in 4 % Paraformaldehyd, Färbung mittels Propidiumiodid und mikroskopische Analyse. Im Folgenden wird die Dicke der ORS Keratinozytenschicht des organptypischen Modells randomisiert vermessen und die Ergebnisse werden in Relation zur unbehandelten Kontrolle dargestellt. Tabelle 5: Steigerung der Schichtdicke nach Behandlung der organptypischen Zellkultur mit Dihydroquercetin in der Konzentration von 88 µM (entspricht Extrakt der Sibirischen Lerche von 0,003%) in % im Vergleich zur unbehandelte Probe

hHa3-I = test: Hair keratin expression by quantitative real-time PCR in organotypic cell cultures: hHa3-I; details: 88 µM, 24 h after application
Description: (§3) Hepatocyte Growth Factor (HGF) und Keratinocyte Growth Factor (KGF) sind wichtige Wachstumsfaktoren, die von den dermalen Papillenzellen synthetisiert werden. Im Speziellen stimuliert HGF das Follikelwachstum und KGF die Keratinozytenproliferation. Entsprechend werden HGF und KGF in der Wachstumsphase vermehrt exprimiert. Diesen Eigenschaften gegenüber steht die Expression von IGFBP-3. Dieses Genprodukt führen zu einer Verschiebung des Zyklus von der Wachstums- zur Regressionsphase. […] Die differentielle Genexpression wurde mittels quantitatitiver RT-PCR (Reverse-Transkription Polymerase Kettenreaktion) bestimmt. […] Zur Quantifizierung der Genexpression wird die unbehandelte Kontrolle gleich 1 gesetzt und die Expression der zu bestimmenden Gene darauf bezogen (x-fache Expression). […]
(§4) Die Festigkeit der Haare und die Haarstruktur ist im Wesentlichen von der Zusammensetzung spezieller haarspezifischer Strukturproteine abhängig, den Haarkeratinen. […] Die Expression verschiedener Haarkeratine organotypischen Modellen kann mit Hilfe des in Beispiel 8 beschriebenen quantitativen Real-Time-PCR-Verfahrens untersucht werden. Zur Quantifizierung der Genexpression wird die Lösungsmittelkontrolle gleich 1 gesetzt und die Expression der zu bestimmenden Gene darauf bezogen (x-fache Expression). […]

hHa4 = test: Hair keratin expression by quantitative real-time PCR in organotypic cell cultures: hHa4; details: 88 µM, 24 h after application
Description: as §3, §4

[8] = dermal papilla cells, 24 h treatment
[9] = organotypic hair follicle cell cultures, 72 h, untreated control = 100, spread in brackets
[10] = control = 1, spread in brackets

O=C1c2c(O)cc(O)cc2OC(c2ccc(O)c(O)c2)C1O (stereo not drawn) [Dihydroquercetin, 2-(3.4-dihyrdroxy-phenyl)-3 5 7-trihydroxy-chroman-4-one]
ATP-Produktion von organotypischen Zellkulturen in %, Mittelwert (Standardabweichung) ([1]; 88 µM (= 0,003% Extrakt der Sibirischen Lerche), untreated sample = 100): 138 (10) %
Steigerung der ATP-Produktion gegenüber der unbehandelten Kontrolle ([1]; organotypic cell cultures, 88 µM): 38%
Expression IGFBP3, Mittelwert (IGFBP3; dermal papilla cells, 88 µM): 0,63(0,13) x-fache Expression
Expression IGFBP3, Mittelwert (IGFBP3; dermal papilla cells, 8,8 µM): 0,72 (0,04) x-fache Expression
Genexpression von IGFBP-3 (result in words) (IGFBP3; [8]): tendenziellen verminderten Expression
Expression HGF, Mittelwert (HGF [2]; dermal papilla cells, 88 µM): 3,62(2,11) x-fache Expression
Expression HGF, Mittelwert (HGF [2]; dermal papilla cells, 8,8 µM): 2,90 (1,18) x-fache Expression
Genexpression von HGF (result in words) (HGF [2]; [8]): tendenziell
Expression KGF, Mittelwert (KGF [3]; dermal papilla cells, 88 µM): 2,18 (0,27) x-fache Expression
Expression KGF, Mittelwert (KGF [3]; dermal papilla cells, 8,8 µM): 2,71 (0,36) x-fache Expression
Genexpression von KGF (result in words) (KGF [3]; [8]): signifikanten Induktion
Relative Ausschüttung von KGF, Mittelwert [%] (KGF [4]; dermal papilla cells, 88 µM): 176 (16,7) %
Relative Ausschüttung von KGF, Mittelwert [%] (KGF [4]; dermal papilla cells, 8,8 µM): 173 (17,6) %
Freisetzung von KGF (result in words) (KGF [4]; dermal papilla cells, 8,8 and 88 µM): signifikant erhöhten Freisetzung
Relative Ausschüttung von KGF, Mittelwert [%] (KGF [5]; [9]): 126 (7) %
Freisetzung von KGF (result in words) (KGF [5]; organotypic hair model): Aktivierung der Freisetzung
Relative Ausschüttung von HGF, Mittelwert [%] (HGF [6]; [9]): 142 (15) %
Freisetzung des Hepatozyten Wachstumsfaktor (HGF) (result in words) (HGF [6]; organotypic hair model): erhöhte Freisetzung
Steigerung der ORS Keratinozytenschichtdicke ([7]; called tendential): 11%
Schichtdicke in % im Vergleich zur unbehandelte Probe, Mittelwert ([7]; control = 100, spread in brackets): 111 (4) %
Keratinexpression hHa3-I (result in words) (hHa3-I): Steigerung der Keratinexpression
Haarkeratinexpression hHa3-I (hHa3-I; [10]): 4,1 (1,5) x-fache Expression
Keratinexpression hHa4 (result in words) (hHa4): Steigerung der Keratinexpression
Haarkeratinexpression hHa4 (hHa4; [10]): 4,1 (1,6) x-fache Expression
